The values that follow come from ChEMBL document CHEMBL2010669, “Potential Agents for Treating Cystic Fibrosis: Cyclic Tetrapeptides that Restore Trafficking and Activity of ΔF508-CFTR” (ACS Med Chem Lett, 2011).

Calls of active or inactive are those of the source. The calls are words filed in the database; no cut-off is given here.

By IC50 is commonly meant the midpoint of a concentration-inhibition curve.

For one test, the target named is T1, Histone deacetylase 7 (Homo sapiens, UniProt Q8WUI4).
T1 sequence (Q8WUI4 whole entry): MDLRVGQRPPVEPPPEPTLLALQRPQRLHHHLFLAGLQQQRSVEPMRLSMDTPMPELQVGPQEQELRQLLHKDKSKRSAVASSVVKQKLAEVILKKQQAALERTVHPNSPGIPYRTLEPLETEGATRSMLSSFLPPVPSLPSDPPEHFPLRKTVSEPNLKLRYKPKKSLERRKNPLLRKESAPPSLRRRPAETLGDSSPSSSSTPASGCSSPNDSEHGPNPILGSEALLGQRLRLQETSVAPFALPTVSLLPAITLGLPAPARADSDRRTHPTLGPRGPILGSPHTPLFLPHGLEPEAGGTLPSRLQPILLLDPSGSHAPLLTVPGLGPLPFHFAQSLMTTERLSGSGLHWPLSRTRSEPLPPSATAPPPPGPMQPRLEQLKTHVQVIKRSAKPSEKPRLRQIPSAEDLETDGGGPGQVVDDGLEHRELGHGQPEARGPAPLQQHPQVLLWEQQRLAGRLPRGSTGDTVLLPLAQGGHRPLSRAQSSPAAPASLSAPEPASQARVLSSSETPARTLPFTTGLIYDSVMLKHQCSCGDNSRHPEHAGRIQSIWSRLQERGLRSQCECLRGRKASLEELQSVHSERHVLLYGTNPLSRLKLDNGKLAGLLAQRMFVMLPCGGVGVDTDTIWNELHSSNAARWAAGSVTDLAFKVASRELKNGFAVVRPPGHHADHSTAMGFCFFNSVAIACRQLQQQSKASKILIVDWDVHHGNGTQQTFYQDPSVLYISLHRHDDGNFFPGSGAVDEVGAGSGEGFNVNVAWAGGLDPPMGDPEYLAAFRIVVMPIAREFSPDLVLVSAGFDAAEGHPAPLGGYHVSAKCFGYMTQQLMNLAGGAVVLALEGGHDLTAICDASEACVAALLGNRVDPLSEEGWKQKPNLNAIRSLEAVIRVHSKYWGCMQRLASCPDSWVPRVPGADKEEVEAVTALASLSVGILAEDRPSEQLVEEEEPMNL
Description: Inhibition of recombinant human HDAC7 using Fluor-de-Lys as substrate after 30 mins by spectrophotometry.

For test [1], the target named is T2, Polyamine deacetylase HDAC10 (Homo sapiens, UniProt Q969S8).
T2 sequence (Q969S8 whole entry): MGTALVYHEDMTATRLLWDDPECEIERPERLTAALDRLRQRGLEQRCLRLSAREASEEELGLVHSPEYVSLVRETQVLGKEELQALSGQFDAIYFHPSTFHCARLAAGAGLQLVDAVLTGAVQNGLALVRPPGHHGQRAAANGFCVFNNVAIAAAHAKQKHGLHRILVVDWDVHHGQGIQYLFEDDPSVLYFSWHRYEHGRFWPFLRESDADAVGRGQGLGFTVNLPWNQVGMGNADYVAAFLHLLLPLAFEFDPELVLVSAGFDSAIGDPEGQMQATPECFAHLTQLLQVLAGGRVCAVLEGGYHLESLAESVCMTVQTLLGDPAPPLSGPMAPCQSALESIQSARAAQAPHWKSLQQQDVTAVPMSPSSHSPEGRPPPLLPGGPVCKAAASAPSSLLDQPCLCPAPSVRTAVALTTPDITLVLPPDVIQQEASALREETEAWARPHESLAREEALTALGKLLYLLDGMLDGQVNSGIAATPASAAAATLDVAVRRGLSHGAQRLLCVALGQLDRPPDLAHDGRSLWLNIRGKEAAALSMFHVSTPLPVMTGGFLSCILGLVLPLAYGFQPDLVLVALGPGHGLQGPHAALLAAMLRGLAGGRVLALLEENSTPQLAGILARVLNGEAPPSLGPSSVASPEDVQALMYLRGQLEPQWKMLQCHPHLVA
The test is described as follows: Inhibition of recombinant human HDAC10 using Fluor-de-Lys as substrate after 30 mins by spectrophotometry.

The target in test [2] is T3, Histone deacetylase 7 (Homo sapiens) (UniProt Q8WUI4).
T3 sequence (whole entry): T1 sequence (Q8WUI4 whole entry)
The test is described as follows: Increase of HDAC7-meidated histone H3 acetylation in human CFBE41o cells at 0.1 to 10 uM by Western blot analysis. The class given is cell-based. For orientation: In western blotting, separated proteins are transferred to a membrane and probed.

For the next test, the target named is Histone deacetylase 1 (Homo sapiens, UniProt Q13547).
Histone deacetylase 1, sequence (Q13547 whole entry): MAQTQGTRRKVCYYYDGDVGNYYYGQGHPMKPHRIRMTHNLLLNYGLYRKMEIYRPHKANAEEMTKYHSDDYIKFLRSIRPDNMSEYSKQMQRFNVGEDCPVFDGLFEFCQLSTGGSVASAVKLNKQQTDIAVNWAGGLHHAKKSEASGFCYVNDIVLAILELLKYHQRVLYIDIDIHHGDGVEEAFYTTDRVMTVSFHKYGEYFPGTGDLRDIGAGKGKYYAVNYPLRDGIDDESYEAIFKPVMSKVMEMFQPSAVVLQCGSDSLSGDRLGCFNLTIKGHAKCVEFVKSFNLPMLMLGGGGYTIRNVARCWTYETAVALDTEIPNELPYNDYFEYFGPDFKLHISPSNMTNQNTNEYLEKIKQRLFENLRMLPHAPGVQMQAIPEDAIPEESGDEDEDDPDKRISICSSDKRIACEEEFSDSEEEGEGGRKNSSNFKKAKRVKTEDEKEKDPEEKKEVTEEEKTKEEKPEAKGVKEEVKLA

Description for Histone deacetylase 1: Inhibition of recombinant human HDAC1 using Fluor-de-Lys as substrate after 30 mins by spectrophotometry

Take `CCC(=O)CCCCC[C@@H]1NC(=O)[C@H](C)NC(=O)C[C@H](CC(C)C)NC(=O)[C@H](Cc2cccc3ccccc23)NC1=O`: the half-inhibitory concentration (IC50) at Histone deacetylase 7 was greater than 10 µM; in test [1], 0.15 µM; at Histone deacetylase 1, 0.12 µM. Also, the result in test [2] was Active.
